Data from PubChem BioAssay AID1963850 (Molecular Pharmacology Branch, DTP, NCI, 2024).

Tested on: 192522-019-R-J2-PDC complex tumor spheroid viability
Test: Anticancer human tumor 192522-019-R-J2-PDC patient-derived colon adenocarcinoma cell line growth inhibition [POLQ]
Conditions: for IC50: curve of first compound; for viability, T/C: stronger effect = lower value
Outline: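 Patient-derived tumour cells were co-cultured with HUVEC and mesenchymal stem cells as multicellular spheroids at 37 °C. They were treated with POLQ inhibitors (novobiocin, ART-558, RP6685) alone or combined with other agents. Top concentrations were at or near clinical Cmax (otherwise 10 microM; SN-38 at 1 microM), decreasing in half-log steps.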

[1] = second compound 0.0316 µM, first compound 0.0316 µM
[2] = second compound 0.0316 µM, first compound 0.1 µM
[3] = second compound 0.0316 µM, first compound 0.316 µM
[4] = second compound 0.0316 µM, first compound 1 µM
[5] = second compound 0.0316 µM, first compound 3.16 µM
[6] = second compound 0.0316 µM, first compound 10 µM
[7] = second compound 0.1 µM, first compound 0.0316 µM
[8] = second compound 0.1 µM, first compound 0.1 µM
[9] = second compound 0.1 µM, first compound 0.316 µM
[10] = second compound 0.1 µM, first compound 1 µM
[11] = second compound 0.1 µM, first compound 3.16 µM
[12] = second compound 0.1 µM, first compound 10 µM
[13] = second compound 0.316 µM, first compound 0.0316 µM
[14] = second compound 0.316 µM, first compound 0.1 µM
[15] = second compound 0.316 µM, first compound 0.316 µM
[16] = second compound 0.316 µM, first compound 1 µM
[17] = second compound 0.316 µM, first compound 3.16 µM
[18] = second compound 0.316 µM, first compound 10 µM
[19] = second compound 1 µM, first compound 0.0316 µM
[20] = second compound 1 µM, first compound 0.1 µM
[21] = second compound 1 µM, first compound 0.316 µM
[22] = second compound 1 µM, first compound 1 µM
[23] = second compound 1 µM, first compound 3.16 µM
[24] = second compound 1 µM, first compound 10 µM
[25] = second compound 3.16 µM, first compound 0.0316 µM
[26] = second compound 3.16 µM, first compound 0.1 µM
[27] = second compound 3.16 µM, first compound 0.316 µM
[28] = second compound 3.16 µM, first compound 1 µM
[29] = second compound 3.16 µM, first compound 3.16 µM
[30] = second compound 3.16 µM, first compound 10 µM
[31] = second compound 10 µM, first compound 0.0316 µM
[32] = second compound 10 µM, first compound 0.1 µM
[33] = second compound 10 µM, first compound 0.316 µM
[34] = second compound 10 µM, first compound 1 µM
[35] = second compound 10 µM, first compound 3.16 µM
[36] = second compound 10 µM, first compound 10 µM
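Further: spheroids exposed to drugs for seven days before reading.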
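Wherever viability, T/C is given: 100% = DMSO vehicle control viability in luminescence.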

COc1cc2cc(C(=O)CCC(=O)O)sc2cc1OC + Cc1cccc(N(C)C(=O)C2C(O)CCN2c2nc(C)cc(C(F)(F)F)c2C#N)c1
IC50 (second compound 0.0316 µM): > 10 µM | IC50 (second compound 0.1 µM): > 10 µM | IC50 (second compound 0.316 µM): > 10 µM | IC50 (second compound 1 µM): > 10 µM | IC50 (second compound 3.16 µM): > 10 µM | IC50 (second compound 10 µM): > 10 µM | viability, T/C [1]: 114% | viability, T/C [2]: 97.4% | viability, T/C [3]: 94.9% | viability, T/C [4]: 95.8% | viability, T/C [5]: 98.7% | viability, T/C [6]: 92.5% | viability, T/C [7]: 107% | viability, T/C [8]: 99.6% | viability, T/C [9]: 96.1% | viability, T/C [10]: 110% | viability, T/C [11]: 103% | viability, T/C [12]: 107% | viability, T/C [13]: 102% | viability, T/C [14]: 100% | viability, T/C [15]: 93.8% | viability, T/C [16]: 101% | viability, T/C [17]: 104% | viability, T/C [18]: 110% | viability, T/C [19]: 101% | viability, T/C [20]: 106% | viability, T/C [21]: 97.7% | viability, T/C [22]: 108% | viability, T/C [23]: 108% | viability, T/C [24]: 105% | viability, T/C [25]: 108% | viability, T/C [26]: 104% | viability, T/C [27]: 96.3% | viability, T/C [28]: 96.6% | viability, T/C [29]: 101% | viability, T/C [30]: 105% | viability, T/C [31]: 103% | viability, T/C [32]: 102% | viability, T/C [33]: 103% | viability, T/C [34]: 102% | viability, T/C [35]: 111% | viability, T/C [36]: 97.4%

O=C(Nc1ccc(O)c(NS(=O)(=O)c2ccc(F)cc2)c1)c1ccc(-c2ccccc2)cc1 + Cc1cccc(N(C)C(=O)C2C(O)CCN2c2nc(C)cc(C(F)(F)F)c2C#N)c1
IC50 (second compound 0.0316 µM): > 10 µM | IC50 (second compound 0.1 µM): > 10 µM | IC50 (second compound 0.316 µM): > 10 µM | IC50 (second compound 1 µM): > 10 µM | IC50 (second compound 3.16 µM): > 10 µM | IC50 (second compound 10 µM): > 10 µM | viability, T/C [1]: 94.8% | viability, T/C [2]: 97.5% | viability, T/C [3]: 98.2% | viability, T/C [4]: 96.3% | viability, T/C [5]: 106% | viability, T/C [6]: 109% | viability, T/C [7]: 101% | viability, T/C [8]: 98.5% | viability, T/C [9]: 99.7% | viability, T/C [10]: 90.4% | viability, T/C [11]: 101% | viability, T/C [12]: 94.8% | viability, T/C [13]: 96.9% | viability, T/C [14]: 96.4% | viability, T/C [15]: 93.5% | viability, T/C [16]: 101% | viability, T/C [17]: 103% | viability, T/C [18]: 101% | viability, T/C [19]: 113% | viability, T/C [20]: 106% | viability, T/C [21]: 101% | viability, T/C [22]: 102% | viability, T/C [23]: 98.9% | viability, T/C [24]: 103% | viability, T/C [25]: 103% | viability, T/C [26]: 104% | viability, T/C [27]: 106% | viability, T/C [28]: 100% | viability, T/C [29]: 108% | viability, T/C [30]: 105% | viability, T/C [31]: 114% | viability, T/C [32]: 100% | viability, T/C [33]: 106% | viability, T/C [34]: 97.9% | viability, T/C [35]: 99.8% | viability, T/C [36]: 98.5%

COc1cccc2c1C(=O)c1c(O)c3c(c(O)c1C2=O)CC(O)(C(=O)CO)CC3OC1CC(N)C(O)C(C)O1 (stereo unspecified) + Nc1ccc(C#CCN(C(=O)Cc2ncc(C(F)(F)F)cc2C(F)(F)F)c2ccc(F)cc2)nn1
IC50 (second compound 0.0316 µM): > 10 µM | IC50 (second compound 0.1 µM): > 10 µM | IC50 (second compound 0.316 µM): > 10 µM | IC50 (second compound 1 µM): > 10 µM | IC50 (second compound 3.16 µM): > 10 µM | IC50 (second compound 10 µM): > 10 µM | viability, T/C [1]: 100% | viability, T/C [2]: 85% | viability, T/C [3]: 79.4% | viability, T/C [4]: 75.7% | viability, T/C [5]: 74% | viability, T/C [6]: 58.9% | viability, T/C [7]: 108% | viability, T/C [8]: 80.4% | viability, T/C [9]: 81.6% | viability, T/C [10]: 79.9% | viability, T/C [11]: 68.4% | viability, T/C [12]: 62.4% | viability, T/C [13]: 100% | viability, T/C [14]: 89% | viability, T/C [15]: 80.1% | viability, T/C [16]: 81.5% | viability, T/C [17]: 73.5% | viability, T/C [18]: 62.7% | viability, T/C [19]: 88.6% | viability, T/C [20]: 81.9% | viability, T/C [21]: 81.2% | viability, T/C [22]: 71.2% | viability, T/C [23]: 67.8% | viability, T/C [24]: 58% | viability, T/C [25]: 96.7% | viability, T/C [26]: 85% | viability, T/C [27]: 87.9% | viability, T/C [28]: 75.4% | viability, T/C [29]: 69.2% | viability, T/C [30]: 58.1% | viability, T/C [31]: 92.4% | viability, T/C [32]: 81.2% | viability, T/C [33]: 94.7% | viability, T/C [34]: 71.5% | viability, T/C [35]: 60.4% | viability, T/C [36]: 49.1%
